Experimental data as given in PMC3082957 (ACS chemical neuroscience, 2011).

Assays:
Format in all cases: cell-based
[1] = system: voltage-gated Na+ channels in CAD cells
[2] = system: voltage-gated Na+ channels in CAD cells; settings: for fraction of channels in a slow-inactivated state (1 minus the normalized INa): at −50 mV
[3] = system: voltage-gated Na+ channels in CAD cells; settings: 100 µM
[4] = system: voltage-gated Na+ channels in CAD cells; assay: Frequency; settings: 100 µM; 30 pulses at 10 Hz, holding −80 mV
[5] = system: voltage-gated Na+ channels in CAD cells; assay: Rate of development of inhibition/slow inactivation of Na+ currents in CAD cells; settings: 100 µM; vehicle 0.51 ± 0.08
[6] = system: voltage-gated Na+ channels in CAD cells; remark: listed apart in the source
[7] = 30 µM, UV irradiation, then washed 5 min

Row | Compound | reduction of peak inward Na+ current ([1]; 100 µM, CAD cells held at −80 mV, versus 0.1% DMSO) | slow inactivation observed at potentials more depolarized than ([2]; 100 µM) | fraction of Na+ current available at −50 mV ([2]; 100 µM, 5 s conditioning prepulse) | maximal fraction of current unavailable by depolarization ([2]; 100 µM, 20 mV as printed, control 0.62 ± 0.03) | fraction of channels in a slow-inactivated state (1 minus the normalized INa) ([2]; 100 µM) | V1/2 of steady-state fast inactivation ([3]; DMSO control −67.5 ± 1.0 mV, not different (p > 0.05)) | peak current lower than control by the last pulse [4] | fraction of current available at 8 s prepulse duration [5] | recovery of current amplitude at −10 mV after wash compared with pre-drug values ([6]; 100 µM, 10 min, 5-min wash) | effect on slow inactivation following the 5-min wash ([6]; 100 µM, 10 min at 37 °C, then 5-min wash, −50 mV) | IC50 for slow inactivation, fold lower compared with (R)-1 ([2]; CAD cells, versus IC50 85 µM of (R)-1) | slope (k) of fast inactivation curve, shallower than DMSO-treated cells ([3]; p<0.05) | Na+ channels remaining in a slow-inactivated state [6, 7] | recovery of current amplitude at −10 mV compared with DMSO control or UV alone [6, 7] | Na+ channels accumulated in the slow-inactivated state ([6]; 30 µM, photoactivated 365 nm 8 min then 312 nm 1 min) | Na+ channels in the slow-inactivated state ([6]; 30 µM, without light) | changes in steady-state activation or fast inactivation ([6]; pre-drug, drug, UV and washout conditions, (R)-5 40 µM, (R)-6 40 µM, (R)-7 30 µM) | block of Na+ current [1]
1 | COC[C@@H](NC(C)=O)C(=O)NCc1ccccc1 [(R)-1, (R)-N-benzyl 2-acetamido-3-methoxypropionamide] | 40% | > −80 mV | 0.35 ± 0.01 fractional units | 0.26 ± 0.01 | 0.65 ± 0.08 | −69.5 ± 1.3 mV | ~ 10% | 0.31 ± 0.01 | 74% | completely reversed | – | – | – | – | – | – | – | –
2 | COC[C@@H](NC(C)=O)C(=O)NCc1ccc(C2(C(F)(F)F)N=N2)cc1 [(R)-7] | – | – | – | – | 0.66 ± 0.05 | – | – | – | – | – | 7.1 fold | about 55% | about 10% | 87% | about 35% | 65% | no changes | –
3 | NC1=N[C@H](O)[C@H]2[C@H]3O[C@]4(O)O[C@@H]([C@@H](O)[C@@]2(N1)[C@@H]4O)[C@]3(O)CO [tetrodotoxin] | – | – | – | – | – | – | – | – | – | – | – | – | – | – | – | – | – | almost all of the current was blocked
